Assay results taken from ChEMBL document CHEMBL3507680, “University of Dundee, Gates Library screen for HepG2 cell viability”.

Test: Human HepG2 cell viability assay in 384 well format
Type: toxicity, cell-based
Parameters: dose 125 nL, time 70.5 hour; concentration not given beside the values
Conditions: HepG2 cells, read-out: Inhibition

Fc1ccc(C2CCCN2Cc2nc(Cc3ccccc3F)no2)cc1 (stereo not given)
cytotoxicity at 70.5 h: 0.991%

O=C1COC2(CCN(c3ccccn3)CC2)CN1Cc1ccccn1
cytotoxicity at 70.5 h: 17.6%

Cc1ccc(C(=O)N2C[C@H](OCC3CCOCC3)[C@H]3OCCC[C@H]32)o1
cytotoxicity at 70.5 h: 0.644%

COC[C@H]1CC[C@H]2[C@H](CCN2S(=O)(=O)c2ccccc2)O1
cytotoxicity at 70.5 h: 5.05%

O=C(c1ccnnc1)N1C[C@H](OCC2CCOCC2)[C@H]2OCCC[C@H]21
cytotoxicity at 70.5 h: 0.563%

CCOC[C@@H]1CC[C@H]2[C@H](CCN2S(=O)(=O)c2ccc(F)cc2)O1
cytotoxicity at 70.5 h: -6.92%

Cc1ccc(CN2CCCn3c(nc(Cn4ccnc4)cc3=O)C2)s1
cytotoxicity at 70.5 h: 8.11%

Cc1ccc(C(=O)N2CCO[C@H]3[C@H](OCC4CCOCC4)CC[C@@H]32)o1
cytotoxicity at 70.5 h: 11.2%

Cc1ccoc1C(=O)N1C[C@@H](OCC2CCOCC2)[C@H]2OCCC[C@H]21
cytotoxicity at 70.5 h: 8.35%

Cc1ccc(N2CCC3(CCN(C(=O)c4ccsc4)CC3)CC2)nn1
cytotoxicity at 70.5 h: -7.09%

Cc1ccc(C(=O)N2C[C@@H](OCc3cccnc3)[C@H]3OCCC[C@H]32)o1
cytotoxicity at 70.5 h: 3.45%

COCC1CN(Cc2ccncc2)Cc2nn(C)cc21 (stereo not given)
cytotoxicity at 70.5 h: 30.7%

O=S(=O)(c1ccccc1)N1CCC[C@]2(C[C@@H](OCC3CC3)CO2)C1
cytotoxicity at 70.5 h: 9.43%

Cn1cc(CN2CCC3(CCCCN3S(C)(=O)=O)CC2)cn1
cytotoxicity at 70.5 h: -11.7%

Cc1nn(C)c2nc(N3CCC(C(O)c4nccn4C)CC3)sc12 (stereo not given)
cytotoxicity at 70.5 h: -11.6%

O=C(O)C(c1ccc2c(c1)OCO2)N1CCC(O)(c2cccnc2)CC1 (stereo not given)
cytotoxicity at 70.5 h: 0.616%

O=C(c1cccc(C2CCNC2)c1)N1CCC(c2ncc[nH]2)CC1 (stereo not given)
cytotoxicity at 70.5 h: -17%

Cc1cc(C)c(-n2cc(CCO)cn2)cc1C
cytotoxicity at 70.5 h: 22.1%

CCN1Cc2nc(OC)c(CNC(=O)C3CCCN(C)C3)cc2C1=O (stereo not given)
cytotoxicity at 70.5 h: -5.45%

CSCCN1CCN(c2nc(N)ncc2C)CC1
cytotoxicity at 70.5 h: 21.4%

CN(C)Cc1ccccc1CN(C)c1ncnc2[nH]ccc12
cytotoxicity at 70.5 h: -9.22%

NC(=O)Cn1ccnc1C1CCCN(Cc2nc3ccccc3s2)C1 (stereo not given)
cytotoxicity at 70.5 h: -7.02%

CCC(=O)Nc1ccc(OCC(=O)N(C)C(C)c2ccon2)cc1 (stereo not given)
cytotoxicity at 70.5 h: -18.6%

CCn1ccnc1C1CCN(C(=O)Nc2ccc(OC)cc2)CC1
cytotoxicity at 70.5 h: 29.5%

Cc1nc(NCc2coc(-c3ccccc3)n2)cc(C2CCNCC2)n1
cytotoxicity at 70.5 h: -2.73%

CCN1CC2(CCN(CCOc3ccc(F)cc3)CC2)CC1=O
cytotoxicity at 70.5 h: 12.8%

COCCN(Cc1cnn(C)c1)C(=O)C1CCCN(C2CCOCC2)C1 (stereo not given)
cytotoxicity at 70.5 h: -12.6%

CCc1ncc(C(=O)N2CCCN(C3CCCCC3)CC2)cn1
cytotoxicity at 70.5 h: 10.7%

CC(C)c1noc(C2CCCN2S(=O)(=O)Cc2ccc(F)cc2)n1 (stereo not given)
cytotoxicity at 70.5 h: 0.0647%

CN(Cc1ccn[nH]1)C(=O)CCC(=O)NC1CCCC1
cytotoxicity at 70.5 h: -9.97%

Cc1nc(C2CCNCC2)cc(N2CCOc3ccccc3C2)n1
cytotoxicity at 70.5 h: -4.26%

CCCn1cc(C(=O)N2CCCC(c3nccn3CCOC)C2)c(C)n1 (stereo not given)
cytotoxicity at 70.5 h: 1.39%

COCCN(C)C[C@@H]1CN(C(=O)c2ccc(SC)cc2)C[C@@H]1CO
cytotoxicity at 70.5 h: 12.6%

CC(C)N1CCC(CC(=O)NC(C(=O)O)c2cc(F)ccc2F)CC1 (stereo not given)
cytotoxicity at 70.5 h: -16.6%

COc1ccccc1OC1CN(C(=O)CN(C)Cc2ccncc2)C1
cytotoxicity at 70.5 h: -14.2%

CSCc1noc(-c2nc3c([nH]2)CCCNC3=O)n1
cytotoxicity at 70.5 h: -4.67%

CN1[C@H]2CC[C@@H]1CN(C(=O)c1nnc3n1CCCC3)CC2
cytotoxicity at 70.5 h: 12.6%

CCOC(=O)c1coc(N2CCN(Cc3cc(C)cc(C)c3)C(=O)C2)n1
cytotoxicity at 70.5 h: -5.18%

CN(Cc1cc(-c2cccnc2)no1)C(=O)[C@@H]1CSCN1C
cytotoxicity at 70.5 h: -8.97%

O=C(c1cccc(Cl)c1)C1CCCN(c2nnc(C3CCC3)o2)C1 (stereo not given)
cytotoxicity at 70.5 h: 5.93%

Cc1csc(CN(C)CCOc2ccccc2)n1
cytotoxicity at 70.5 h: 20.8%

Cc1ccccc1CN(CCN(C)C)Cc1ncc[nH]1
cytotoxicity at 70.5 h: -7.18%

Cc1ncsc1CCC(=O)NCc1cc2n(n1)CCNC2
cytotoxicity at 70.5 h: -8.17%

CC(C)Oc1cc(N2CCC3(CC2)[C@H](O)C[C@@H]3O)nc(N)n1
cytotoxicity at 70.5 h: -1.26%

CN1CCC(c2nnc(CN3CCCCC3)n2C)CC1
cytotoxicity at 70.5 h: -9.09%

Cc1nc(C)n(CC(C)C(=O)N2CCC(N3CCC(O)CC3)CC2)n1 (stereo not given)
cytotoxicity at 70.5 h: -3.14%

CC(=O)c1cc(CN2C[C@@H](NS(=O)(=O)N(C)C)[C@H](C(C)C)C2)cs1
cytotoxicity at 70.5 h: 7.82%

CCc1cc(NCC(O)CN2CCCCC2)ncn1 (stereo not given)
cytotoxicity at 70.5 h: -4.61%

Nc1nc(CNc2nccc(CCC(F)(F)F)n2)cs1
cytotoxicity at 70.5 h: -7.96%

N[C@@H]1CCN(Cc2ccc(-c3nc(-c4cccnc4)cc(=O)[nH]3)cc2)C1
cytotoxicity at 70.5 h: -10.8%

O=C(c1cnn2ccccc12)N1CCCC(OCc2ccccn2)C1 (stereo not given)
cytotoxicity at 70.5 h: -6.94%

Cc1cc2nc(C(C)C)cc(N(C)CC3CCCN3C)n2n1 (stereo not given)
cytotoxicity at 70.5 h: -10.7%

CNc1ccnc(N2C[C@@H](C)[C@](O)(C3CC3)C2)n1
cytotoxicity at 70.5 h: -3.1%

Cn1cnnc1CN1CCC2(CCCN(C3CCCC3)C2=O)C1 (stereo not given)
cytotoxicity at 70.5 h: 1.29%

CCN(C)C(=O)[C@H]1C[C@@](CC(C)C)(C(=O)OC)N(C)[C@H]1c1cccnc1
cytotoxicity at 70.5 h: -3.05%

COCCC1(CO)CCCN(Cc2ccc(C(F)(F)F)nc2)C1 (stereo not given)
cytotoxicity at 70.5 h: -1.12%

CSC(C)CCN1CCCn2nc(CNC(=O)C3CCC3)cc2C1 (stereo not given)
cytotoxicity at 70.5 h: 0.861%

CC(c1nccs1)n1cc(-c2cc(CN3CCCCC3)cs2)nn1 (stereo not given)
cytotoxicity at 70.5 h: -4.83%

O=C(CCN1CCCO1)NC1CCCN(CC2CCCCC2)C1 (stereo not given)
cytotoxicity at 70.5 h: -2.41%

O=C(O)c1ccccc1C1CCN(Cc2ccc(-c3cc[nH]n3)o2)C1 (stereo not given)
cytotoxicity at 70.5 h: -2.33%

Cc1cc(C[C@@H]2COC[C@@H]2NC(=O)CNC(=O)N(C)C)on1
cytotoxicity at 70.5 h: 9.05%

COc1ccc(C(=O)C2CCCN(c3cc(N)ncn3)C2)c(C)c1 (stereo not given)
cytotoxicity at 70.5 h: -10.4%

CSCCC(O)C(=O)N1CCN(Cc2cccc(Cl)c2)CC1 (stereo not given)
cytotoxicity at 70.5 h: -12.9%

CN(Cc1cc(-c2ccccc2)no1)C(=O)CNS(C)(=O)=O
cytotoxicity at 70.5 h: 23.3%

OC1(CNCCCN2CCCc3ccccc32)CNCCOC1 (stereo not given)
cytotoxicity at 70.5 h: -13%

CN(C)CC(=O)NC1CC(=O)N(CCc2ccccc2)C1 (stereo not given)
cytotoxicity at 70.5 h: -4.7%

COCCn1cncc1CN1CCCC(C(=O)Cc2ccccc2)C1 (stereo not given)
cytotoxicity at 70.5 h: 0.198%

CC(C)(C)c1nc(CN(Cc2cccnc2)C2CN3CCC2CC3)no1 (stereo not given)
cytotoxicity at 70.5 h: -1.01%

COCCN1C[C@H]2CC[C@@H]1CN(Cc1ccc3ccccc3n1)C2
cytotoxicity at 70.5 h: -5.95%

CN(Cc1ccccc1)c1cnn(CC2COCCO2)c(=O)c1 (stereo not given)
cytotoxicity at 70.5 h: -2.99%

O=C(O)C(c1ccc2c(c1)OCCO2)N1CCSCC1 (stereo not given)
cytotoxicity at 70.5 h: -3.24%

CNc1nc(C)c(C(=O)N2CCCCC2CCc2ccc(O)cc2)s1 (stereo not given)
cytotoxicity at 70.5 h: -8.49%

CC(C)Oc1ccc2c(NC(=O)CNC(N)=O)nn(CC(F)(F)F)c2c1
cytotoxicity at 70.5 h: 3.1%

COc1ccccc1OC1(C(=O)O)CCN(c2ccccn2)CC1
cytotoxicity at 70.5 h: 1.96%

Cc1cccc2sc(NC(=O)CN3CCCC4(CC3)CNC(=O)O4)nc12 (stereo not given)
cytotoxicity at 70.5 h: -7.84%

CCn1c(C2CCCNC2)nn(CCn2cncn2)c1=O (stereo not given)
cytotoxicity at 70.5 h: -8.3%

CCN(C)C[C@@H]1CN(Cc2cccc(Cl)c2)C[C@@H]1CO
cytotoxicity at 70.5 h: -11.5%

CC(C)c1nccc(C2(c3ccccc3Cl)CCNCC2)n1
cytotoxicity at 70.5 h: 10.5%

CCn1c(C)nnc1SCCNC(=O)c1cnc(C(C)(C)C)nc1O
cytotoxicity at 70.5 h: 14.5%

COCCn1cnnc1CNc1cc(C)nc2c(C)c(C)nn12
cytotoxicity at 70.5 h: -5.61%

Cc1noc(C)c1C1CCCN1C(=O)c1cn2ccsc2n1 (stereo not given)
cytotoxicity at 70.5 h: -3.13%

CCCSc1nc(O)c(CC)c(=O)n1-c1ccccc1
cytotoxicity at 70.5 h: -6.46%

CC[C@H]1COCCN1C(=O)c1cnc(-c2ccccc2)nc1C
cytotoxicity at 70.5 h: -5.37%

Cc1cccc(C(=O)N2CC(=O)N(c3ccccc3Cl)CC2C)n1 (stereo not given)
cytotoxicity at 70.5 h: 49.8%

c1cncc(NCCNC2CSCCSC2)c1
cytotoxicity at 70.5 h: 5.88%

O=c1c2ccccc2cnn1Cc1cncn1C1CC1
cytotoxicity at 70.5 h: -6.14%

Cn1ccnc1SCCNc1ccnc(C(F)(F)F)n1
cytotoxicity at 70.5 h: -2.76%

Cc1nnc(CN(C)C2CCN(c3cccc(-c4cscn4)c3)CC2)o1
cytotoxicity at 70.5 h: -3.22%

O=C1[C@@H]2CN(c3ncnc4sccc34)C[C@]2(C(=O)O)CN1CC1CC1
cytotoxicity at 70.5 h: -11.3%

Cc1nn(C)cc1-c1ccnc(N(C)Cc2cccs2)n1
cytotoxicity at 70.5 h: 2.52%

Cc1ccc(C(=O)N2C[C@@H](OCc3cccnc3)[C@H]3OCCC[C@@H]32)o1
cytotoxicity at 70.5 h: 10.6%

c1cnc(N2CCC3(CCN(CC4CCOC4)CC3)C2)nc1 (stereo not given)
cytotoxicity at 70.5 h: -1.96%

O=C(CC1CC2(CCN(CC3CC3)CC2)c2ccccc21)NC1CCC1 (stereo not given)
cytotoxicity at 70.5 h: -2.68%

O=C(C1=CCCC1)N1CCC2(CC1)CC(Oc1cccnc1)CO2 (stereo not given)
cytotoxicity at 70.5 h: -0.424%

Cc1oncc1C(=O)NCc1cc(=O)n2c(n1)CN(CC(C)C)CCC2
cytotoxicity at 70.5 h: 22.7%

O=C(c1cnccn1)N1CCCC2(CCN(c3ccccn3)C2)C1 (stereo not given)
cytotoxicity at 70.5 h: 19.3%

O=C(c1cc[nH]n1)N1CCC2(CC1)CC(Oc1cccnc1)CO2 (stereo not given)
cytotoxicity at 70.5 h: 8.68%

CCN1CCCn2c(nc(CNC(=O)c3cnoc3C)cc2=O)C1
cytotoxicity at 70.5 h: 5.12%

Cc1ccc(N2CCC3(CCN(C(=O)N(C)C)CC3)CC2)nn1
cytotoxicity at 70.5 h: 11.4%

Cc1noc(C)c1CN1CCO[C@H]2CN(C(=O)N3CCCC3)C[C@H]21
cytotoxicity at 70.5 h: 0.539%

c1cnc(N2CCC3(CCCN(CC4CC4)C3)CC2)nc1
cytotoxicity at 70.5 h: -6.6%

CCS(=O)(=O)N1CC[C@H]2CO[C@H](CN(C)C)[C@H]2C1
cytotoxicity at 70.5 h: 9.44%

O=C(NCc1ccco1)[C@@H]1CCO[C@@H]2CCN(c3ncccn3)C[C@@H]21
cytotoxicity at 70.5 h: 9.24%

Cn1cc(CN2CCCC3(CCCCN3S(C)(=O)=O)C2)cn1 (stereo not given)
cytotoxicity at 70.5 h: -9.02%

O=C(NCc1ccco1)[C@@H]1CCO[C@@H]2CCN(c3ncccn3)C[C@H]21
cytotoxicity at 70.5 h: -3.72%

CN1CC(=O)N(c2ccsc2)CC12CCN(C(=O)Nc1ccccc1)C2 (stereo not given)
cytotoxicity at 70.5 h: -4.43%

O=C(CCc1cccnc1)N1CCC2(CCN(CC3CCCC3)C2)C1 (stereo not given)
cytotoxicity at 70.5 h: 23.3%

Cc1cc(CN2CCO[C@H]3[C@H](OCc4csc(C)n4)CC[C@@H]32)no1
cytotoxicity at 70.5 h: 2.95%

CN1CC(=O)N(c2cccc(F)c2)CC12CCN(CC1CC1)C2 (stereo not given)
cytotoxicity at 70.5 h: -3.68%

CN1CC(=O)N(c2ccccc2)CC12CCN(CCO)C2 (stereo not given)
cytotoxicity at 70.5 h: 6.4%
